Laboratory results from patent publication US8216782B2, “PTTG1 as a biomarker for cancer treatment” (Cedars-Sinai Medical Center, priority 2008, dated 2012).
Entries after “also recorded” stand apart in the source; their conditions may differ.

Assays:
HCT116 PTTG1−/− cells [1] = assay: WST-1 cell proliferation assay; assay type: cell-based; conditions: for sensitivity of PTTG1−/− cell growth versus WT (WST-1): PTTG1−/− vs WT HCT116 cells
Experimental: (§1) FIG. 4 depicts that PTTG1 regulates cell response to Aurora Kinase inhibition, in accordance with an embodiment of the present invention. (A) PTTG1^−/− cell proliferation was attenuated in response to Aurora Kinase A siRNA (mean±S.D., n=3. P<0.05 vs WT). Cells were seeded into 96-well plates, cultured overnight, and then transfected with siRNAs (100 nM). After 72 hours, premixed WST-1 cell proliferation reagent (10 ul) was added to each well. Cells were incubated for a further four hours and shaken thoroughly for one minute before measurement. […] Cells were seeded into 96-well plates, cultured overnight, and then treated with drug as indicated for 48 hours. Viable cells were measured using Premixed WST-1 cell proliferation reagent. (C) Anchorage-dependent colony formation assay was performed as described herein. […] (mean±S.D., n=3. P<0.05 vs WT) (D) Western blot showing that over-expressed PTTG1 rescued PTTG1^−/− sensitivity to Aurora Kinase inhibitor III (12.5 uM) (mean±S.D., n=3. P>0.05 vs WT); PTTG1 knock-down enhanced WT cell sensitivity to Aurora Kinase inhibitor III (12.5 uM) (mean±S.D., n=3. P>0.05 vs PTTG1^−/−). PTTG1^−/−=PTTG1-null or KO cells.
(§2) Cell proliferation was evaluated using WST-1 cell proliferation reagent (obtained from Clontech Laboratories, Inc.; Mountain View, Calif.). Briefly, 90 μl cells were seeded into 96-well plates and cultured overnight, treated with drugs for 48 hours, and 10 μl premixed WST-1 cell proliferation reagent added. Cells were incubated for a further four hours, shaken and absorbance measured at 450 nm using a Victor 3 multiwell plate reader (obtained from PerkinElmer, Inc.; Waltham, Mass.). Cell viability rate was calculated for each well as A450 treated cells/A450 control cells×100% (A450: OD value at 450 nm).

Aurora Kinase A [2] = assay: Western blot of siRNA knock down; assay type: cell-based; conditions: WT and PTTG1−/− cells
Experimental: Protein extracts were resolved by Nupage 4-12% Bis-Tris Gel (obtained from Invitrogen). Samples were electro-blotted onto PVDF membrane (obtained from Invitrogen), and membranes blocked and incubated with primary antibody. Donkey anti-rabbit- or anti-mouse (obtained from GE Healthcare; NJ) antibodies were conjugated to horseradish […] to reveal immunocomplexes by enhanced chemiluminescence (obtained from Thermo Scientific Pierce Protein Research Products).
Aurora Kinase A siRNA (AM51331, Sense: Described herein as SEQ. ID. NO.: 5; Antisense: Described herein as SEQ. ID. NO.: 6) and PTTG1 siRNA (16706, Sense: Described herein as SEQ. ID. NO.: 7; Antisense: Described herein as SEQ. ID. NO.: 8) were purchased from Ambion, Inc. (TX). Transfections were carried out with lipofectamine 2000 according to protocol.

Aurora Kinase A [3] = conditions: Gadea and Ruderman, 2005; cited from earlier work
HCT116 WT cells [4] = assay: WST-1 cell proliferation assay; assay type: cell-based; conditions: Homo sapiens, HCT-116, 48 h, read-out: cells remaining viable
Experimental: as §1, §2

HCT116 PTTG1−/− cells [5] = assay: Anchorage-dependent colony formation assay; assay type: cell-based; conditions: PTTG1−/− colonies, 0.16 μM doxorubicin
Experimental: (§3) Briefly, 20,000 cells were plated in a six-well culture dish, allowed to attach overnight and treated with depicted drug concentrations. Cells were cultured in standard culture medium containing indicated treatments for twelve days and medium re-freshened every three days. Colonies were stained with 0.5% crystal violet in methanol/acetic acid (3:1) and those composed of >50 cells were counted.

HCT116 WT cells [6] = assay: Anchorage-dependent colony formation assay; assay type: cell-based; conditions: 0.16 μM doxorubicin
Experimental: as §3

Aurora Kinase A [7] = assay: Kinase activity of Aurora Kinase A immunoprecipitated from treated HCT116 cells; assay type: cell-based; conditions: PTTG1−/− vs WT HCT116 cells
From the text: (§4) FIG. 6 depicts PTTG1 and DNA damage pathway, in accordance with an embodiment of the present invention. […] (B) Aurora Kinase A activity was less inhibited after DNA damage treatment in PTTG1^−/− cells. Lane C1, positive control with Aurora Kinase A; lane C2, negative control without Aurora Kinase A; lane WT, Aurora Kinase A co-immunoprecipitated from HCT116 WT cells after doxorubicin treatment; Lane −/−, Aurora Kinase A immunoprecipitated from HCT116 PTTG1^−/− cells after doxorubicin treatment. Aurora Kinase A activity is higher in PTTG1^−/− than WT HCT116 cells. (C) C, PTTG1 WT plasmid; M3, PTTG1 S165A mutation; M9, PTTG1 S181A mutation. Plasmids were transfected into HCT116 PTTG1^−/− cells and treated with proteosome inhibitor LLnL to enrich phosphorylated PTTG1. Arrow depicts the major band. […] (D) WT, PTTG1 WT plasmid; M9, PTTG1 S181A mutation were transfected into HCT116 PTTG1^−/− and co-immunoprecipitation performed. […] (E) Proposed signaling pathway for PTTG1 action in G2 DNA damage checkpoint.
Aurora Kinase A activity is inhibited by DNA damage (Krystyniak et al., 2006). The inventors therefore tested Aurora Kinase A activity in HCT116 WT and PTTG1^−/− cells after treatment with doxorubicin. […] Phosphorylated PTTG1 may therefore act with Aurora Kinase A and play a role in the DNA damage-induced G2 checkpoint. […]

PTTG1 = assay: Western blot of PTTG1 phosphorylation after DNA damage; assay type: cell-based; conditions: 24 hours, 5 μM doxorubicin
From the text: as §4

HCT116 PTTG1−/− cells [8] = assay: β-galactosidase staining (senescence); assay type: cell-based; conditions: 0.313 uM, 48 hrs
From the text: (§5) Cells were fixed and stained with β-galactosidase staining kit (Sigma).

HCT116 WT cells [9] = assay: β-galactosidase staining (senescence); assay type: cell-based; conditions: 0.313 uM, 48 hrs
From the text: as §5

HCT116 cells = assay: Apoptosis by Tunel assay and activated caspase 3 levels; assay type: cell-based
p21 = p21 expression after treatment; assay type: cell-based; conditions: WT and PTTG1−/− cells
From the text: FIG. 10 depicts P21 level is higher in PTTG1^−/− cells than WT. P21 induces senescence.

WT HCT116 tumors = assay: Subcutaneous tumor implant in nude mice; assay type: in vivo; conditions: 50 mg/kg, 17 days
Experimental: Tumor volume was measured twice a week.

PTTG1−/− HCT116 tumors = assay: Subcutaneous tumor implant in nude mice; conditions: 50 mg/kg, 17 days
Experimental: Tumor volume was measured twice a week. Mice were sacrificed at day 18 and tumors were collected and weighted.

ribosomal protein S10 = biological target: T1, ribosomal protein S10 (Homo sapiens, UniProt P46783); assay: Protein microarray screening (Protoarray); assay type: binding; conditions: biotinylated PTTG1 probe
T1 construct: purchased Invitrogen Protoarray nc-v3
Experimental: (§6) FIG. 1 depicts that PTTG1 interacts with Aurora Kinase A, in accordance with an embodiment of the present invention. (A) PTTG1 was biotin-labeled and incubated with the protein microarray. Attached biotinylated PTTG1 was probed with Streptavidin-Alexa Fluor 647 conjugate. […] (B) Aurora Kinase A antibody was used to co-immunoprecipitate PTTG1, and PTTG1 antibody used to co-immunoprecipitate Aurora Kinase A respectively.
(§7) The human Protoarray nc3.0 study was performed as described by the manufacturer (obtained from Invitrogen Corporation; Carlsbad, Calif.). PTTG1 protein was biotinylated using biotin-XX sulfosuccinimidyl ester, purified by gel filtration, and assessed by Western blot. Appropriate protein aliquots were used to probe a protein microarray (Protoarray nc-v3; obtained from Invitrogen) and attached biotinylate PTTG1 was probed with Streptavidin-Alexa Fluor 647 conjugate. Arrays were scanned by GenePix 4000B (obtained from Molecular Devices Corporation; Sunnyvale, Calif.), and images analyzed using ProtoArray Prospector (Invitrogen).

Aurora Kinase A [10] = biological target: T2, Aurora Kinase A (Homo sapiens, UniProt O14965); assay: In vitro kinase activity assay (histone H3 Ser10 phosphorylation); assay type: biochemical; parameters: purchased Cell Signaling; conditions: PTTG1 0.5, 1, 2 μg
T2 sequence (O14965 1-403): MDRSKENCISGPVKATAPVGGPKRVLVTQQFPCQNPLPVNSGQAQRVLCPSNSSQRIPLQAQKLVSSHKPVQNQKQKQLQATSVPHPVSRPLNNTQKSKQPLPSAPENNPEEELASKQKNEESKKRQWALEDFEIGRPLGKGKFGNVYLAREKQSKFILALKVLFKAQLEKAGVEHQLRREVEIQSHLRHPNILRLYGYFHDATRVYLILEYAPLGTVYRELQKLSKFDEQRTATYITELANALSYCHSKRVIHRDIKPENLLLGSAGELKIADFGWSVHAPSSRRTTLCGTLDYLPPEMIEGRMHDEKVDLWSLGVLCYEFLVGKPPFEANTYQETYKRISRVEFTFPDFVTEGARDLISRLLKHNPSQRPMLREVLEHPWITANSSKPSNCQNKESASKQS
From the text: FIG. 3 depicts that PTTG1 attenuates Aurora Kinase A function, in accordance with an embodiment of the present invention. (A) Over-expressed PTTG1 caused abnormal spindle formation as evidenced by unevenly distributed PTTG1-GFP and Aurora Kinase A (white arrows). (B) Western blot showing that over-expressed PTTG1 suppressed Aurora Kinase A T288 auto-phosphorylation and histone H3 Ser10 phosphorylation in HCT116 cells compared to controls. (C) Over-expressed PTTG1 repressed histone H3 Seri 0 phosphorylation as shown by immunofluorescence (white arrows). Scale bar=5 μm. (D) Degradation of mitotic proteins. HCT116 cells were synchronized with 400 ng/ml nocodazole for twelve hours and mitotic cells collected by shake-off, washed and cultured in fresh medium at 37° C. to allow progression of G2/M, and cells harvested at the indicated time points. […] (E) In vitro kinase assay. Aurora Kinase A, histone H3 and increasing PTTG1 or GST-His levels (0.5, 1, 2 μg) were brought to a 30 μl volume reaction system as described herein. After incubations at 37° C. for 20 minutes, reactions were halted and analyzed by Western blotting using histone H3 ser10 antibody. […]
Assays were performed using a modified Aurora kinase A assay kit obtained from Cell Signaling. […] Proteins were separated by standard SDS-PAGE and analyzed by Western blotting.

Aurora Kinase A [11] = biological target: T2, Aurora Kinase A; assay: Protein microarray screening (Protoarray); assay type: binding; parameters: purchased Invitrogen Protoarray nc-v3; conditions: biotinylated PTTG1 probe
Experimental: as §6, §7

For “Aurora Kinase A siRNA: siRNA AM51331, SEQ. ID. NO.: 5 and 6, purchased from Ambion (chain 1 GGCAACCAGUGUACCUCAU; chain 2 AUGAGGUACACUGGUUGCC; chemistry not given here; listed as Homo sapiens)”, the “effect on the WT versus PTTG1−/− difference in response to doxorubicin” value (HCT116 PTTG1−/− cells [1]; 3 μM inhibitor pre-incubation or siRNA, 0.63 μM doxorubicin) was “abolished the differences”, the “sensitivity of PTTG1−/− cell growth versus WT (WST-1)” value (HCT116 PTTG1−/− cells [1]) was “attenuated” and the “Aurora Kinase A expression” value (Aurora Kinase A [2]) was “efficiently knocked down Aurora Kinase A expression”.

In the case of `COc1cc2c(Nc3ccc(NC(=O)c4ccccc4)cc3)ncnc2cc1OCCCN1CCOCC1` [ZM 447439], the “effect on chromosome condensation and spindle” value (Aurora Kinase A [3]) is listed as “retards progression of chromosome condensation, leading to a disorganized spindle”.

For `COc1cccc2c1C(=O)c1c(O)c3c(c(O)c1C2=O)C[C@@](O)(C(=O)CO)C[C@@H]3O[C@H]1C[C@H](N)[C@H](O)[C@H](C)O1` [doxorubicin], the viability at 1.25 µM (HCT116 PTTG1−/− cells [1]; Homo sapiens, HCT-116, 48 h, read-out: cells remaining viable) was 27%, the “sensitivity of PTTG1−/− cell growth versus WT (WST-1)” value (HCT116 PTTG1−/− cells [1]) was “more sensitive” and the viability at 1.25 µM (HCT116 WT cells [4]) was 55%. The colonies survived (HCT116 PTTG1−/− cells [5]) was 36%, the colonies survived (HCT116 WT cells [6]) was 74% and the “Aurora Kinase A activity after doxorubicin treatment” value (Aurora Kinase A [7]) was “less suppressed in PTTG1^−/− than WT cells”. The “phosphorylated PTTG1” value (PTTG1) was “Increased phosphorylated PTTG1”.

With `O=C(CCCCCCC(=O)Nc1ccccc1)NO` [SAHA, suberoylanilide hydroxamic acid] the “senescent cells (β-galactosidase staining)” value (HCT116 PTTG1−/− cells [8]) was 43%, the “senescent cells (β-galactosidase staining)” value (HCT116 WT cells [9]) was 7% and the apoptosis (HCT116 cells) was “did not cause apoptosis”. For the same molecule, the p21 expression (p21) was “enhanced p21 expression”, the tumor growth (WT HCT116 tumors) was “did not show any difference between control and treated group; also recorded: had no effect” and the tumor growth (PTTG1−/− HCT116 tumors) was “significantly inhibited”.

B1: PTTG1: pituitary tumor transforming gene protein (securin); His-PTTG1 expressed in insect cells, biotinylated for the array (protein, listed as Homo sapiens)
chain: MATLIYVDKENGEPGTRVVAKDGLKLGSGPSIKALDGRSQVSTPRFGKTFDAPPALPKATRKALGTVNRATEKSVKTKGPLKQKQPSFSAKKMTEKTVKAKSSVPASDDAYPEIEKFFPFNPLDFESFDLPEEHQIAHLPLSGVPLMILDEERELEKLFQLGPPSPVKMPSPPWESNLLQSPSSILSTLDVELPPVCCDIDI
modifications: His tag, biotinylated
notes: pituitary tumor transforming gene protein (securin); His-PTTG1 expressed in insect cells, biotinylated for the array
In the case of B1, the Z-score of interaction (ribosomal protein S10) is reported as 3.34, the “Aurora Kinase A phosphorylation of histone H3” value (Aurora Kinase A [10]) is reported as “dose-dependently inhibits” and the Z-score of interaction (Aurora Kinase A [11]) is reported as 4.90.
